Assays:
HT-29 cell line = experiment: CCK-8 cell viability, HT-29 colorectal cancer cell line; type: cell-based, human; conditions: serum-free medium, 24 hours, mean ± SD of 2 to 3 experiments
Description: (§1) To identify the anticancer effect of the compounds L1, L2, and L3 according to Examples 1 to 3 of the present disclosure, and the complexes L1Pt, L2Pt, and L3Pt according to Examples 4 to 6 of the disclosure, the cell viability analysis of cancer cells using CCK-8 was performed on several cancer cell lines (colorectal cancer cell line (HT-29 cell line), breast cancer cell line (MCF-7 and MDA-MB-231), cervical cancer cell line (HeLa cell line), liver cancer cell line (Huh-7 and HepG2), brain glioma cell line (C6), lung cancer (A549), prostate cancer (PC3), kidney cancer (Caki-2), normal liver cell line (AML-12), embryonic kidney cell line (HEK-293), neural stem cell line (NE-4C) and normal breast epithelial cell line (MCF10a)).
(§2) CCK-8 (Cell counting kit-8) is analyzed using a highly water-soluble tetrazolium salt-[…]. [2-(2-methoxy-4-nitrophenyl)-3-(4-nitrophenyl)(2,4-disulfophenyl)-2H-tetrazolium, monosodium salt] is reduced under the presence of an electron medium to produces a water-soluble formazan orange dye. The amount of the formazan dye produced by dehydrogenase in a cell is directly proportional to the number of living cells.
(§3) In an experimental method for evaluating the properties of the compounds according to the present disclosure, various cancer cell lines derived from humans and normal cell lines of each tissue derived from humans and mice were used in this experiment. A complete growth medium corresponding to each cell line and having 10% of heat-inactivated FBS added thereto was used to maintain corresponding cells. The maintained cells were suspended in a volume of 200 μl at a density of 1 or 1.5×10^4 cells and planted in each well of a 96 well plate. The cells were attached to a 37° C. and 5% CO2 incubator for more than 14 hours, and we waited for a stable state. The next day, we removed the medium from the well. 100 μl of serum-free medium containing drugs of various concentrations (0 (control), 2.5, 5, 10, 20, 30, 40, 50, 100, 200 μM) was added to each well and the cells was cultured therein. On 22 hours after the incubation, 10 μl of CCK-8 solution was added to each well, followed by incubation for 2 hours. A plate on which the culture was completed was measured in terms of absorbance at 450 nm using a microplate reader.
(§4) Cell Viability Calculation:
(§5) • A: Absorbance value measured in a control well • B: Absorbance value measured in a well containing the drug
(§6) In Table 1 below, each compound was applied to the cells at 0, 2.5, 5, 10, 20, 30, 40, 50, 100, and 200 μM, and the cells was cultured in a medium free of serum for 24 hours. The measured absorbance value was converted to a % value based on a value of 0, such that a IC50 value was calculated. Each experiment was performed 2 to 3 times and a standard deviation value was obtained.

[1] = system: several cancer cell lines; experiment: CCK-8 cell viability, panel of cancer cell lines compared in words (FIGS. 3a to 3e); type: cell-based, human; conditions: Log IC50, FIGS. 3a to 3e; no comparator
Description: as §1, §2, §3
Further, FIGS. 3a to 3e show a graph in which a IC50 value which is obtained based on 2 to 3 times executions of the cell viability analysis is converted to a Log IC50 value. […] The comparative reliability values for BTA were expressed as […], ##p<0.01, and ## #p<0.001. A red line represents the value of cisplatin. A blue line represents the value of BTA.

HepG2 = experiment: CCK-8 cell viability, HepG2 liver cancer cell line; type: cell-based, human; conditions: serum-free medium, 24 hours, mean ± SD of 2 to 3 experiments
Description: as §1, §2, §3, §4, §5, §6

Caki-2 = experiment: CCK-8 cell viability, Caki-2 kidney cancer cell line; type: cell-based, human; conditions: serum-free medium, 24 hours, mean ± SD of 2 to 3 experiments
Description: as §1, §2, §3, §4, §5, §6

MCF-7 = experiment: CCK-8 cell viability, MCF-7 breast cancer cell line; type: cell-based, human; conditions: serum-free medium, 24 hours, mean ± SD of 2 to 3 experiments
Description: as §1, §2, §3, §4, §5, §6

HEK-293 = experiment: CCK-8 cell viability, HEK-293 embryonic kidney cell line; type: cell-based; conditions: serum-free medium, 24 hours, mean ± SD of 2 to 3 experiments, read-out: IC50 HEK293 (embryonic kidney)
Description: as §1, §2, §3, §4, §5, §6

NE-4C = experiment: CCK-8 cell viability, NE-4C neural stem cell line; type: cell-based; conditions: serum-free medium, 24 hours, CCK-8; mean ± SD of 2 to 3 experiments; read-out: IC50 NC-4C (Neural stem cell)
Description: as §2, §3, §4, §5, §6

MCF10a = experiment: CCK-8 cell viability, MCF10a normal breast epithelial cell line; type: cell-based; conditions: serum-free medium, 24 hours, CCK-8; mean ± SD of 2 to 3 experiments
Description: as §1, §2, §3, §4, §5, §6

A549 = experiment: CCK-8 cell viability, A549 lung cancer cell line; type: cell-based, human; conditions: serum-free medium, 24 hours, mean ± SD of 2 to 3 experiments
Description: as §1, §2, §3, §4, §5, §6

C6 = experiment: CCK-8 cell viability, C6 brain glioma cell line; type: cell-based, human; conditions: serum-free medium, 24 hours, mean ± SD of 2 to 3 experiments
Description: as §1, §2, §3, §4, §5, §6

Huh-7 = experiment: CCK-8 cell viability, Huh-7 liver cancer cell line; type: cell-based, human; conditions: serum-free medium, 24 hours, mean ± SD of 2 to 3 experiments
Description: as §1, §2, §3, §4, §5, §6

HeLa cell line = experiment: CCK-8 cell viability, HeLa cervical cancer cell line; type: cell-based, human; conditions: serum-free medium, 24 hours, mean ± SD of 2 to 3 experiments
Description: as §1, §2, §3, §4, §5, §6

PC3 = experiment: CCK-8 cell viability, PC3 prostate cancer cell line; type: cell-based, human; conditions: serum-free medium, 24 hours, mean ± SD of 2 to 3 experiments
Description: as §1, §2, §3, §4, §5, §6

MDA-MB-231 = experiment: CCK-8 cell viability, MDA-MB-231 breast cancer cell line; type: cell-based, human; conditions: serum-free medium, 24 hours, mean ± SD of 2 to 3 experiments
Description: as §1, §2, §3, §4, §5, §6

AML12 = experiment: CCK-8 cell viability, AML-12 normal liver cell line; type: cell-based; conditions: serum-free medium, 24 hours, CCK-8; mean ± SD of 2 to 3 experiments
Description: as §2, §3, §4, §5, §6

benzothiazole aniline [BTA, reference compound]
IC50 (HT-29 cell line): 275 ± 5.03 µM | effect on cancer cell lines, in words [1]: did not have greater effect on colorectal cancer, brain glioma, and lung cancer | IC50 (HepG2): 52 ± 5.71 µM | IC50 (Caki-2): 463 ± 44.1 µM | IC50 (MCF-7): 104 ± 28.6 µM | IC50 (HEK-293): > 500 µM | IC50 (NE-4C): 60.9 ± 2.93 µM | IC50 (MCF10a): 401 ± 136 µM | IC50 (A549): > 500 µM | IC50 (C6): 425 ± 47.8 µM | IC50 (Huh-7): 406 ± 35.7 µM | IC50 (HeLa cell line): 76.4 ± 23.4 µM | IC50 (PC3): 182 ± 7.79 µM | IC50 (MDA-MB-231): > 500 µM | IC50 (AML12): > 500 µM
